Data taken from a melting point compilation (Tetko et al.).

Row | melting point [°C] | Compound
1 | 169 | Cc1ccc(O)cn1
2 | 250 | O=C(Nc1cc2c(cc1/C=C/c1ccccc1)CC(c1ccccc1)N2C(=O)c1ccccc1)c1ccccc1 (configuration not stated)
3 | 118 to 119 | O=C(O)c1cccc(COc2ccccc2)c1
4 | 48.5 | CCCCCCCCCCCCCCCCCCCCC1CCCCC1
5 | 53 | COc1ccc(C=O)c(C)c1C
6 | 235 to 240 | CCOC(=O)c1c[nH]c2c(OC(F)(F)F)cccc2c1=O
7 | 140 | O=[N+]([O-])c1cccc2c1cnn2C1CC(O)C(CO)O1 (configuration not stated)
8 | 105 | CN(CCCN1c2ccccc2CCc2ccccc21)CC(=O)c1ccc(Cl)cc1
9 | -38 | CCCCCCCCC(=O)OCCCC
10 | 95 to 98 | O=[N+]([O-])c1cccc2cc[nH]c12
11 | -75 | CCCCN(CCO)CCCC
12 | 110 to 112 | CCCCOc1ccc(NC(C)=O)cc1
13 | 77 | COc1ccc(OC)c(C(=O)O)c1
14 | 212 | CC1=CC(=C(C#N)C#N)C=C(C=Cc2ccc(N(C)C)cc2)O1
15 | 140 to 147 | O=C(O)C1(c2ccc(Cl)cc2Cl)CC1
16 | 146 | Cc1cccc(C)c1N(C(=O)CCl)C1CCOC1=O (configuration not stated)
17 | 154 to 155 | O=C(Cl)c1sc(Br)c2c1OCCO2
18 | 215 | CC(=O)C(=NNc1ccccc1)c1cc(C(=NNc2ccccc2)C(C)=O)c([N+](=O)[O-])cc1[N+](=O)[O-]
19 | 133 | CCOc1cccc(/C=C/C(=O)O)c1
20 | 109 to 112 | O=C(CBr)c1cc(-c2ccccc2)no1
21 | 66 | O=Cc1cc(-c2cccs2)on1
22 | 118 | O=C1c2ccccc2C(=O)N1CC#CCCl
23 | 104 | CC(C)=CCCC(C)C1=C(O)C(=O)C(C)=CC1=O (configuration not stated)
24 | 123 | CC(C)CCCC(C)C1CC[C@@]2(C)C3=CCC4[C@H](C)[C@@H](O)CC[C@]4(C)C3=CC[C@]12C (some centres not stated)
25 | 40 | Fc1cc(Br)ccc1-c1ccccc1
26 | 140 | C/C(=N\c1ccccc1C)c1c(O)c2ccccc2n(-c2ccccc2)c1=O
27 | 47.8 | CCC(Nc1ncnc(C)c1Cl)c1ccc(OC(F)F)cc1 (configuration not stated)
28 | 62.8 | OCC(O)COc1ccccc1 (configuration not stated)

Row | melting point [°C] | Compound
29 | 119 to 122 | Cc1nc(-c2ccc(C(F)(F)F)cc2)sc1CO
30 | 128 | Cc1cc2c(o1)-c1c(oc3ccc(Cl)cc13)CCC2(C)c1ccccc1 (configuration not stated)
31 | 160 to 162 | O=C(O)c1cccc(-c2nccs2)c1
32 | 4 | CCCCCCCCC(Br)C(=O)O (configuration not stated)
33 | 188 | O=C1CC(=O)CC(c2ccccc2)C1
34 | 153 to 157 | O=C(N=Nc1ccccc1)NNc1ccccc1
35 | 96 to 98 | O=C(O)CCc1ccccc1Br
36 | 101 to 105 | O=C(NCCCC[C@H](NC(=O)OCc1ccccc1)C(=O)O)OCC1c2ccccc2-c2ccccc21
37 | 185 | O=C(O)c1onc2ccccc12
38 | 128 | Cc1ccc(-c2onc(C(=O)c3cccs3)c2S(=O)(=O)c2ccccc2)cc1
39 | 43 | CC(C)(C)C(=O)C=Cc1ccccc1
40 | 120 | O=Cc1ccc(Sc2ccc(Cl)cc2)c([N+](=O)[O-])c1
41 | 150 | Cc1[nH]c2cc(C(=O)O)ccc2c1C
42 | 128 to 133 | O=C(Oc1ccccc1)c1cc2ccccc2cc1O
43 | 66 to 68 | Nc1c(Cl)cc(C(F)(F)F)cc1[N+](=O)[O-]
44 | 230 | C=C1C(=O)C23C4CC5C(C)(C)CCC(OC(C)=O)C5(C(=O)O4)C2C(OC(C)=O)CC1C3OC(C)=O (configuration not stated)
45 | 63 to 64 | COC(=O)C(=O)CC(C)=O
46 | -45 | CCC(=O)N(C)C
47 | 128 | CC(Br)C(Br)c1nc(O)n(-c2ccccc2)n1 (configuration not stated)
48 | 47 to 49 | CCCCCCCCNC(=S)NN
49 | 146 to 148 | CCOC1Oc2ccc(C)cc2C(=O)/C1=C/Nc1nc2ccc(Cl)cc2s1 (configuration not stated)
50 | 43 to 47 | CNCc1csc(C2CCN(C(=O)OC(C)(C)C)CC2)n1
51 | 36 to 37 | CCOC(=O)c1cnc(C(F)(F)F)nc1Cl
52 | 37 to 39 | COc1ccccc1C(C)O (racemic)
53 | 189 to 190 | O=C(O)c1ccc2occc2c1
54 | 186 | O=C(O)c1sccc1Cl
55 | 150 to 152 | CCOc1cc2c(cc1OCC)C(=S)NCC2

Continued, compound first:

Row | Compound | melting point [°C]
56 | OC12Cc3ccccc3C(O)(Cc3ccccc31)O2 | 160 to 167
57 | O=C1C(=Cc2ccc(F)cc2)CCCC1=Cc1ccc(F)cc1 | 147 to 154
58 | CC(C)=CCNC(=N)N | 62.5
59 | O=S(=O)(c1ccccc1)N1CCNCC1 | 111 to 112
60 | Cc1cc(C)n(N=Cc2ccc(F)cc2)c(=O)c1C#N | 186 to 188
61 | O=S(=O)(Cl)c1ccsc1 | 44 to 45
62 | O=C1NN(c2ccccc2)C(=O)C1=Cc1ccc(Cl)cc1 | 322
63 | Cc1ccc(-c2snc(Cl)c2C#N)cc1 | 82 to 83
64 | Cc1cncc(Oc2cccc(N)c2)n1 | 59.5 to 61
65 | N#C/C(=C/c1ccc(F)cc1)c1nc(-c2ccc(Cl)cc2)cs1 | 184
66 | CNc1ccccc1 | -57
67 | CC1=C(C(=O)Nc2ccccc2)SCCO1 | 91.5
68 | N#Cc1cc(Br)c(O)c(Br)c1 | 190
69 | O=C1CCc2cc(F)ccc21 | 39
70 | CCCCN(CC)c1c([N+](=O)[O-])cc(C(F)(F)F)cc1[N+](=O)[O-] | 66
71 | CC=CC(=O)OC1CC2OC3C=C(C)C(=O)CC3(C)C1(C)C21CO1 (configuration not stated) | 118
72 | NNC(=O)CNc1nc(N)n[nH]1 | 225
73 | Sc1nnc2ccccn12 | 213 to 214
74 | N#Cc1ccc(Cn2cccn2)cc1 | 80 to 82

Row | Compound | melting point [°C]
75 | O=Cc1cccc2cnccc12 | 115
76 | NNc1ccccc1C(F)(F)F | 60
77 | C=Cc1ccc(Cl)cc1 | 15.9
78 | OCc1ccc(N2CCOCC2)nc1 | 74 to 76
79 | COc1cc2c(cc1OC)CC2 | 91
80 | C1CCCC2OC2CC1 (configuration not stated) | 53 to 56
81 | O=[N+]([O-])c1ccc(NS(=O)(=O)c2ccc(Cl)c(C(F)(F)F)c2)c(Cl)c1 | 170
82 | FC(F)(Cl)C(F)(Cl)C(F)(F)Cl | -72
83 | Nc1cc(-c2ccccc2)nn1-c1ccccc1 | 131
84 | O=C1CCCC2Cc3ccccc3C(=O)C12 (configuration not stated) | 79
85 | Sc1cccc(Cl)c1Cl | 57 to 61
86 | N#Cc1conc1N | 140
87 | N#C/C(=C\c1cccnc1)c1nc2ccccc2[nH]1 | 228
88 | Clc1cc2c(c(Cl)c1Cl)Oc1cc(Cl)c(Cl)c(Cl)c1O2 | 285
89 | COC(=O)C(C)N(C(=O)c1ccco1)c1c(C)cccc1C (configuration not stated) | 102
90 | Cc1ccc(C(c2ccc(C)cc2)(C(F)(F)F)C(F)(F)F)cc1 | 82 to 83
91 | O=C1CCCCO1 | -13
92 | COc1ccc(-c2cc(NN=c3c(C(F)(F)F)nc4ccccc4[nH]c3=O)[nH]n2)cc1 | 154
